Values of other authors, collected in patent US7098367B2, “Process for the preparation of alkylene glycols” (Saudi Basic Industries Corporation, priority 2004, dated 2006).

Conditions: value may be measured experimentally, taken from references or estimated

Row | Structure (SMILES) | pKa
1 | CN(C)c1ccccc1 [Comparative 1, Dimethylaniline, reference compound] | 5.07
2 | NCCN [Example 1, Ethylenediamine (EDA)] | 9.95
3 | CN(C)CCN(C)C [Example 12, Tetramethylethylenediamine (TMEDA)] | 10.72
4 | C1CN2CCN1CC2 [Example 5, 1,4-diazabicyclo[2,2,2]octane (DABCO)] | 8.82
5 | C1CCCNCC1 [Example 3, Hexamethyleneimine] | 10
6 | NC(=O)NC12CC3CC(CC(C3)C1)C2 [Comparative 3, N-(1-adamantyl)urea, reference compound] | 0.18
